Data: patent US20220162191A1, “SMALL MOLECULE MODULATORS OF IL-17” (LEO PHARMA A/S, priority 2019, published 2022)

target: T1, human IL-17AA (Homo sapiens, UniProt Q16552); assay: IL-8 release assay in human epithelial keratinocytes adult (HEKa); assay type: cell-based; conditions: 3 ng/ml human IL-17AA + 10 ng/ml human TNFalpha, 68-72 h, IL-8 by HTRF, read-out: Rel EC50 L-8 release assay
T1 construct: host or cells: HEK (human embryonic kidney) cells
T1 sequence (Q16552 24-155) 1: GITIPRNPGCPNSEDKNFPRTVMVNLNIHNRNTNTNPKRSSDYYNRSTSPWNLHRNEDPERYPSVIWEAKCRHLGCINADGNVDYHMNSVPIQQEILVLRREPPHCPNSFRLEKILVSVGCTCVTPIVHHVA
T1 sequence (Q16552 24-155) 2: T1 sequence (Q16552 24-155) 1
Protocol: Example: IL-8 release assay in human epithelial keratinocytes adult (HEKa) Keratinocytes were seeded at 3500 cells/well in 384-well ViewPlates (Perkin Elmer) in Epilife medium (Thermo Fisher) containing human keratinocyte growth supplement (HKGS) without hydrocortisone and incubated in a humid incubator at 37° C., 5% CO2, overnight. The following day growth medium was removed and 25 μl fresh Epilife 10 medium added. 75 nl test compound in 100% DMSO was added into each well reserved
for test compounds, by the use of acoustic pipetting. The remaining wells received an equal volume of DMSO only, as vehicle control, or terfenadine in DMSO, as a positive control for any cytotoxic compounds. Subsequently, another 25 μl Epilife medium was added to each well. Finally, wells containing test compounds and wells prepared to yield 15 maximum stimulation received 25 μl of 9 ng/ml recombinant, human embryonic kidney cell (HEK)-derived human IL-17AA+30 ng/ml human TNF-alpha, in Epilife medium. Wells prepared to define 100% inhibition of IL-17 effects received 25 μl of 30 ng/ml human TNF-alpha alone, in Epilife medium. Final concentrations were 3 ng/ml HEKhuman IL-17AA+10 ng/ml human TNFalpha (maximum stimulation) and 10 ng/ml 20 human TNFalpha alone (100% inhibition, Emax), respectively. Cells were incubated for 68-72 h in the incubator. IL-8 released from the cells was measured by the use of a commercial homogenous time-resolved fluorescence (HTRF) assay (CisBio). 2 μl cell culture supernatant was transferred to a 384-well Proxiplate. 5 μl HTRF reagent was added and the plates incubated sealed in the dark for 3-22 h at room temperature. Time resolved fluorescence was read at 665 vs 620 nm, with excitation at 320 nm, and IL-8 levels calculated as percent of controls. Reduction of the amount of secreted IL-8 indicates decreased IL-17 signaling. Concentration response curves were fitted by the use of a four-parameter logistic equation. Relative IC50 and Emax were reported from 5 curves showing acceptable fit (r2>0.9). Cytotoxicity was measured in the cell-containing
Compounds of the present invention were tested in the IL-8 release assay in human epithelial keratinocytes.

SMILES | EC50
CC(C)n1cc(-c2cccc(C(c3ccccc3)C(NC(=O)c3ccnn3C)C(=O)Nc3ccc(-c4cncn4C)cc3)c2)ccc1=O (single isomer, unassigned; diastereomer 3) [Example 233, N-[1-[[3-(1-isopropyl-6-oxo 3-pyridyl)phenyl]-phenyl-methyl]-2-[4-(3-methylimidazol-4-yl)anilino] 2-oxo-ethyl]-2-methyl-pyrazole-3-carboxamide (Diastereomer 3)] | > 1000 nM
Cc1n[nH]cc1-c1ccc(NC(=O)C(NC(=O)c2ccnn2C)C(c2ccccc2)c2cccc(-c3ccc(=O)n(C(C)C)c3)c2)cc1 (single isomer, unassigned; diastereomer 3) [Example 237, N-[1-[[3-(1-isopropyl-6-oxo-3-pyridyl)phenyl]-phenyl-methyl]-2-[4-(3-methyl-1H-pyrazol-4-yl)anilino]-2-oxo-ethyl]-2-methyl-pyrazole-3-carboxamide (Diastereomer 3)] | > 1000 nM
CC(C)n1cc(-c2cccc(C(c3ccccc3)C(NC(=O)OC3CC3)C(=O)Nc3ccc(-c4cncn4C)cc3)c2)ccc1=O (single isomer, unassigned; diastereomer 3) [Example 240, cyclopropyl N-[1-[[3-(1-isopropyl-6-oxo-3-pyridyl)phenyl]-phenyl-methyl]-2-[4-(3-methylimidazol-4-yl)anilino]-2-oxo-ethyl]carbamate (Diastereomer 3)] | > 1000 nM
Cc1n[nH]cc1-c1ccc(NC(=O)C(NC(=O)OC2CC2)C(c2ccccc2)c2cccc(-c3ccc(=O)n(C(C)C)c3)c2)cc1 (single isomer, unassigned; diastereomer 3) [Example 244, cyclopropyl N-[1-[[3-(1-isopropyl-6-oxo-3-pyridyl)phenyl]-phenyl-methyl]-2-[4-(3-methyl-1H-pyrazol-4-yl)anilino]-2-oxo-ethyl]carbamate (Diastereomer 3)] | > 1000 nM
CC(C)n1cc(-c2cccc(C(c3ccccc3)C(NC(=O)c3ccnn3C)C(=O)Nc3ccc(-c4cncn4C)cc3)c2)ccc1=O (single isomer, unassigned; diastereomer 4) [Example 234, N-[1-[[3-(1-isopropyl-6-oxo-3-pyridyl)phenyl]-phenyl-methyl]-2-[4-(3-methylimidazol-4-yl)anilino]-2-oxo-ethyl]-2-methyl-pyrazole-3-carboxamide (Diastereomer 4)] | 100 to 1000 nM
Cc1n[nH]cc1-c1ccc(NC(=O)C(NC(=O)c2ccnn2C)C(c2ccccc2)c2cccc(-c3ccc(=O)n(C(C)C)c3)c2)cc1 (single isomer, unassigned; diastereomer 4) [Example 238, N-[1-[[3-(1-isopropyl-6-oxo-3-pyridyl)phenyl]-phenyl-methyl]-2-[4-(3-methyl-1H-pyrazol-4-yl)anilino]-2-oxo-ethyl]-2-methyl-pyrazole-3-carboxamide (Diastereomer 4)] | 100 to 1000 nM
CC(C)n1cc(-c2cccc(C(c3ccccc3)C(NC(=O)OC3CC3)C(=O)Nc3ccc(-c4cncn4C)cc3)c2)ccc1=O (single isomer, unassigned; diastereomer 4) [Example 241, cyclopropyl N-[1-[[3-(1-isopropyl-6-oxo-3-pyridyl)phenyl]-phenyl-methyl]-2-[4-(3-methylimidazol-4-yl)anilino]-2-oxo-ethyl]carbamate (Diastereomer 4)] | > 1000 nM
Cc1n[nH]cc1-c1ccc(NC(=O)C(NC(=O)OC2CC2)C(c2ccccc2)c2cccc(-c3ccc(=O)n(C(C)C)c3)c2)cc1 (single isomer, unassigned; diastereomer 4) [Example 245, cyclopropyl N-[1-[[3-(1-isopropyl-6-oxo-3-pyridyl)phenyl]-phenyl-methyl]-2-[4-(3-methyl-1H-pyrazol-4-yl)anilino]-2-oxo-ethyl]carbamate (Diastereomer 4)] | < 100 nM
Cc1n[nH]c(C)c1-c1ccc(NC(=O)[C@@H](NC(=O)c2ccnn2C)[C@@H]2CCc3ccc(-c4ccc5c(c4)CNC5)cc32)cc1 [Example 1, N-[(1S)-2-[4-(3,5-dimethyl-1H-pyrazol-4-yl)anilino]-1-[(1R)-6-isoindolin-5-ylindan-1-yl]-2-oxo-ethyl]-2-methyl-pyrazole-3-carboxamide] | < 100 nM
Cc1n[nH]c(C)c1-c1ccc(NC(=O)[C@@H](NC(=O)c2ccnn2C)[C@@H]2CCc3ccc(-c4ccc(CN5CCOCC5)cc4)cc32)cc1 [Example 2, N-[(1S)-2-[4-(3,5-dimethyl-1H-pyrazol-4-yl)anilino]-1-[(1R)-6-[4-(morpholinomethyl)phenyl]indan-1-yl]-2-oxo-ethyl]-2-methyl-pyrazole-3-carboxamide] | < 100 nM
CC(C)n1cc(-c2ccc3c(c2)[C@H]([C@H](NC(=O)c2ccnn2C)C(=O)Nc2ccc(-c4cncn4C)cc2)CC3)ccc1=O [Example 3, N-[(1S)-1-[(1R)-6-(1-isopropyl-6-oxo-3-pyridyl)indan-1-yl]-2-[4-(3-methylimidazol-4-yl)anilino]-2-oxo-ethyl]-2-methyl-pyrazole-3-carboxamide] | 100 to 1000 nM
Cc1n[nH]c(C)c1-c1ccc(NC(=O)[C@@H](NC(=O)c2ccnn2C)[C@@H]2CCc3ccc(-c4cnn(C(C)(C)C)c4)cc32)cc1 [Example 4, N-[(1S)-1-[(1R)-6-(1-tert-butylpyrazol-4-yl)indan-1-yl]-2-[4-(3,5-dimethyl-1H-pyrazol-4-yl)anilino]-2-oxo-ethyl]-2-methyl-pyrazole-3-carboxamide] | < 100 nM
Cc1n[nH]c(C)c1-c1ccc(NC(=O)[C@@H](NC(=O)c2ccnn2C)[C@@H]2CCc3ccc(-c4cnn(C5CCC5)c4)cc32)cc1 [Example 5, N-[(1S)-1-[(1R)-6-(1-cyclobutylpyrazol-4-yl)indan-1-yl]-2-[4-(3,5-dimethyl-1H-pyrazol-4-yl)anilino]-2-oxo-ethyl]-2-methyl-pyrazole-3-carboxamide] | < 100 nM
Cc1n[nH]c(C)c1-c1ccc(NC(=O)[C@@H](NC(=O)C2(F)CC2)[C@@H]2CCc3ccc(-c4ccc(=O)n(C(C)C)c4)cc32)cc1 [Example 6, N-[(1S)-2-[4-(3,5-dimethyl-1H-pyrazol-4-yl)anilino]-1-[(1R)-6-(1-isopropyl-6-oxo-3-pyridyl)indan-1-yl]-2-oxo-ethyl]-1-fluoro-cyclopropanecarboxamide] | 100 to 1000 nM
Cc1n[nH]c(C)c1-c1ccc(NC(=O)[C@@H](NC(=O)C2(F)CC2)[C@@H]2CCc3ccc(-c4ccc(=O)n(C(C)C)c4)cc32)cc1 [Example 7, N-[(1S)-2-[4-(3,5-dimethyl-1H-pyrazol-4-yl)anilino]-1-[(1R)-6-(1-isopropyl-6-oxo-3-pyridyl)indan-1-yl]-2-oxo-ethyl]-1-fluoro-cyclopropanecarboxamide] | < 100 nM
Cc1n[nH]c(C)c1-c1ccc(NC(=O)[C@@H](NC(=O)c2ccnn2C)[C@@H]2CCc3ccc(-c4cnn(C5CC5)c4)cc32)cc1 [Example 8, N-[(1S)-1-[(1R)-6-(1-cyclopropylpyrazol-4-yl)indan-1-yl]-2-[4-(3,5-dimethyl-1H-pyrazol-4-yl)anilino]-2-oxo-ethyl]-2-methyl-pyrazole-3-carboxamide] | < 100 nM
Cc1n[nH]c(C)c1-c1ccc(NC(=O)[C@@H](NC(=O)C2(F)CC2)[C@@H]2CCc3ccc(-c4ccnc(N5CCNCC5)c4)cc32)cc1 [Example 9, N-[(1S)-2-[4-(3,5-dimethyl-1H-pyrazol-4-yl)anilino]-2-oxo-1-[(1R)-6-(2-piperazin-1-yl-4-pyridyl)indan-1-yl]ethyl]-1-fluoro-cyclopropanecarboxamide] | < 100 nM
Cc1n[nH]c(C)c1-c1ccc(NC(=O)[C@@H](NC(=O)c2ccnn2C)[C@@H]2CCc3ccc(-c4ccc5c(c4)CN(C)C5)cc32)cc1 [Example 10, N-[(1S)-2-[4-(3,5-dimethyl-1H-pyrazol-4-yl)anilino]-1-[(1R)-6-(2-methylisoindolin-5-yl)indan-1-yl]-2-oxo-ethyl]-2-methyl-pyrazole-3-carboxamide] | < 100 nM
Cc1n[nH]c(C)c1-c1ccc(NC(=O)[C@@H](NC(=O)c2ccnn2C)[C@@H]2CCc3ccc(-c4cnn(C(C)(C)CO)c4)cc32)cc1 [Example 11, N-[(1S)-2-[4-(3,5-dimethyl-1H-pyrazol-4-yl)anilino]-1-[(1R)-6-[1-(2-hydroxy-1,1-dimethyl-ethyl]pyrazol-4-yl]indan-1-yl]-2-oxo-ethyl]-2-methyl-pyrazole-3-carboxamide] | < 100 nM
